The target of one data set is MERS-CoV 3CL^pro (Middle East respiratory syndrome-related coronavirus, UniProt K9N7C7). Briefly: biochemical.
A further data set concerns the target SARS-CoV-2 3CL^pro (Severe acute respiratory syndrome coronavirus 2, UniProt P0DTD1). Briefly: biochemical. It is filed as biochemical.
The nature of the next data set: in vitro. To be noted: cat.

MERS-CoV 3CL^pro, sequence (K9N7C7 3248-3553 limits assumed): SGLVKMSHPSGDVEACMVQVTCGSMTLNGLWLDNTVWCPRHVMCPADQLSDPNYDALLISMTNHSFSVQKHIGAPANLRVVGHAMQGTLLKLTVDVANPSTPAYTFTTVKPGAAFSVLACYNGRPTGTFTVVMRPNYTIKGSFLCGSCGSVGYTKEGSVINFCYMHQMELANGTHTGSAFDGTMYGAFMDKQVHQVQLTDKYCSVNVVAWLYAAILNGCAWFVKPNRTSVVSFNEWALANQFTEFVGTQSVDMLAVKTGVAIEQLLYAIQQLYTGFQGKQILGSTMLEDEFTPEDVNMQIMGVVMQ

On to `CC(C)C[C@H](NC(=O)OCC1CN(S(C)(=O)=O)C1)C(=O)N[C@@H](C[C@H]1CCNC1=O)C(O)S(=O)(=O)O` (stereo partly drawn) [Compound 17c, Sodium (2S)-1-hydroxy-2-((S)-4-methyl-2-((((1-(methylsulfonyl)azetidin-3-yl)methoxy)carbonyl)amino)pentanamido)-3-((R)-2-oxopyrrolidin-3-yl)propane-1-sulfonate], for which the half-maximal inhibitory concentration (IC50) (in general, the midpoint of a concentration-inhibition curve) worked out at 1.35 ± 0.21 µM against MERS-CoV 3CL^pro and 4.05 ± 0.78 µM on SARS-CoV-2 3CL^pro. Moreover, the CC50 in “in vitro” is above 100 µM.

In the case of `CC(C)C[C@H](NC(=O)OC1CC2(CCN(C(=O)C(C)C)CC2)C1)C(=O)N[C@@H](C[C@H]1CCNC1=O)C(O)S(=O)(=O)O` (stereo partly drawn) [Compound 8c, Sodium (2S)-1-hydroxy-2-((S)-2-((((7-isobutyryl-7-azaspiro[3.5]nonan-2-yl)oxy)carbonyl)amino)-4-methylpentanamido)-3-((R)-2-oxopyrrolidin-3-yl)propane-1-sulfonate], the values for the concentration for half-maximal inhibition (IC50) on MERS-CoV 3CL^pro and on SARS-CoV-2 3CL^pro were 0.52 ± 0.12 µM and 0.41 ± 0.01 µM, respectively. Moreover, in “in vitro”, the CC50 is above 100 µM. Turning to `CC(C)C[C@H](NC(=O)OC1CC2(C1)CN(C(=O)Cc1ccccc1)C2)C(=O)N[C@@H](C[C@H]1CCNC1=O)C(O)S(=O)(=O)O` (stereo partly drawn) [Compound 3c, Sodium (2S)-1-hydroxy-2-((S)-4-methyl-2-((((2-(2-phenylacetyl)-2-azaspiro[3.3]heptan-6-yl)oxy)carbonyl)amino)pentanamido)-3-((R)-2-oxopyrrolidin-3-yl)propane-1-sulfonate], the 50% inhibitory concentration (IC50) turned out to be 0.13 ± 0.03 µM on MERS-CoV 3CL^pro and 0.26 ± 0.05 µM at SARS-CoV-2 3CL^pro. The CC50 in “in vitro” was above 100 µM. In turn, `[2H]C([2H])(OC(=O)N[C@@H](CC(C)C)C(=O)N[C@H](C=O)C[C@H]1CCNC1=O)C1CN(C(=O)OC(C)(C)C)C1` [Compound 18b, tert-Butyl 3-(((((S)-4-methyl-1-oxo-1-(((S)-1-oxo-3-((R)-2-oxopyrrolidin-3-yl)propan-2-yl)amino)pentan-2-yl)carbamoyl)oxy)methyl-d2)azetidine-1-carboxylate] showed a CC50 in the data set “in vitro” above 100 µM. Regarding `CC(C)C[C@H](NC(=O)OC1CC2(CCN(C(=O)OC(C)(C)C)C2)C1)C(=O)N[C@@H](C[C@H]1CCNC1=O)C(O)S(=O)(=O)O` (stereo partly drawn) [Compound 5c, Sodium (2S)-2-((S)-2-((((6-(tert-butoxycarbonyl)-6-azaspiro[3.4]octan-2-yl)oxy)carbonyl)amino)-4-methylpentanamido)-1-hydroxy-3-((R)-2-oxopyrrolidin-3-yl)propane-1-sulfonate], the 50% inhibitory concentration (IC50) on MERS-CoV 3CL^pro and against SARS-CoV-2 3CL^pro was 0.75 ± 0.07 µM throughout. The molecule further came in with a CC50 in the data set “in vitro” above 100 µM. In “in vitro”, `CC(C)C[C@H](NC(=O)OCC1CN(S(C)(=O)=O)C1)C(=O)N[C@H](C=O)C[C@H]1CCNC1=O` [Compound 17b, (1-(Methylsulfonyl)azetidin-3-yl)methyl ((S)-4-methyl-1-oxo-1-(((S)-1-oxo-3-((R)-2-oxopyrrolidin-3-yl)propan-2-yl)amino)pentan-2-yl)carbamate] yielded a CC50 above 100 µM.

For the molecule `CC(C)C[C@H](NC(=O)OC1CC2(C1)CN(C(=O)OC(C)(C)C)C2)C(=O)N[C@@H](C[C@H]1CCNC1=O)C(O)S(=O)(=O)O` (stereo partly drawn) [Compound 1c, Sodium (2S)-2-((S)-2-((((2-(tert-butoxycarbonyl)-2-azaspiro[3.3]heptan-6-yl)oxy)carbonyl)amino)-4-methylpentanamido)-1-hydroxy-3-((R)-2-oxopyrrolidin-3-yl)propane-1-sulfonate], the concentration for half-maximal inhibition (IC50) was found to be 0.28 ± 0.11 µM at MERS-CoV 3CL^pro and 0.85 ± 0.07 µM on SARS-CoV-2 3CL^pro. In “in vitro”, this molecule gave a CC50 above 100 µM. As to `CC(C)C[C@H](NC(=O)OCC1CN(C(=O)C2CC3CCC2C3)C1)C(=O)N[C@@H](C[C@H]1CCNC1=O)C(O)S(=O)(=O)O` (stereo partly drawn) [Compound 16c, Sodium (2S)-2-((2S)-2-((((1-(bicyclo[2.2.1]heptane-2-carbonyl)azetidin-3-yl)methoxy)carbonyl)amino)-4-methylpentanamido)-1-hydroxy-3-((R)-2-oxopyrrolidin-3-yl)propane-1-sulfonate], the IC50 at MERS-CoV 3CL^pro came out at 0.17 ± 0.03 µM; at SARS-CoV-2 3CL^pro, 0.49 ± 0.02 µM. This molecule also displayed a CC50 in “in vitro” above 100 µM. The molecule `CC(C)C[C@H](NC(=O)OC1CC2(CCN(C(=O)Cc3ccccc3)CC2)C1)C(=O)N[C@H](C=O)C[C@H]1CCNC1=O` [Compound 9b, 7-(2-Phenylacetyl)-7-azaspiro[3.5]nonan-2-yl ((S)-4-methyl-1-oxo-1-(((S)-1-oxo-3-((R)-2-oxopyrrolidin-3-yl)propan-2-yl)amino)pentan-2-yl)carbamate] displayed a CC50 in the data set “in vitro” above 100 µM. In the data set “in vitro”, `CC(C)C[C@H](NC(=O)OC1CC2(C1)CN(C(=O)OC(C)(C)C)C2)C(=O)N[C@H](C=O)C[C@H]1CCNC1=O` [Compound 1b, tert-Butyl 6-((((S)-4-methyl-1-oxo-1-(((S)-1-oxo-3-((R)-2-oxopyrrolidin-3-yl)propan-2-yl)amino)pentan-2-yl)carbamoyl)oxy)-2-azaspiro[3.3]heptane-2-carboxylate] yielded a CC50 above 100 µM. For `CC(C)C[C@H](NC(=O)OC1CC2(C1)CN(C(=O)Cc1ccccc1)C2)C(=O)N[C@H](C=O)C[C@H]1CCNC1=O` [Compound 3b, 2-(2-Phenylacetyl)-2-azaspiro[3.3]heptan-6-yl ((S)-4-methyl-1-oxo-1-(((S)-1-oxo-3-((R)-2-oxopyrrolidin-3-yl)propan-2-yl)amino)pentan-2-yl)carbamate], the “fold lower IC50 than compound 1b” value on SARS-CoV-2 3CL^pro is recorded as around 13 fold. Besides, the CC50 in the data set “in vitro” was above 100 µM.

With `CC(C)C[C@H](NC(=O)OCC1CN(C(=O)C2CC3CCC2C3)C1)C(=O)N[C@H](C=O)C[C@H]1CCNC1=O` (stereo partly drawn) [Compound 16b, (1-(Bicyclo[2.2.1]heptane-2-carbonyl)azetidin-3-yl)methyl ((S)-4-methyl-1-oxo-1-(((S)-1-oxo-3-((R)-2-oxopyrrolidin-3-yl)propan-2-yl)amino)pentan-2-yl)carbamate], in “in vitro”, the CC50 was above 100 µM. The same measure, in the same setting: under `CC(C)C[C@H](NC(=O)OC1CC2(C1)CN(C(=O)C(C)C)C2)C(=O)N[C@H](C=O)C[C@H]1CCNC1=O` [Compound 2b, 2-Isobutyryl-2-azaspiro[3.3]heptan-6-yl ((S)-4-methyl-1-oxo-1-(((S)-1-oxo-3-((R)-2-oxopyrrolidin-3-yl)propan-2-yl)amino)pentan-2-yl)carbamate] stands above 100 µM; under `CC(C)C[C@H](NC(=O)OC1(C)CN(C(=O)OC(C)(C)C)C1)C(=O)N[C@H](C=O)C[C@H]1CCNC1=O` [Compound 13b, tert-Butyl 3-methyl-3-((((S)-4-methyl-1-oxo-1-(((S)-1-oxo-3-((R)-2-oxopyrrolidin-3-yl)propan-2-yl)amino)pentan-2-yl)carbamoyl)oxy)azetidine-1-carboxylate], above 100 µM; under `CC(C)C[C@H](NC(=O)OC1CC2(CCN(C#N)CC2)C1)C(=O)N[C@H](C=O)C[C@H]1CCNC1=O` [Compound 11b, 7-Cyano-7-azaspiro[3.5]nonan-2-yl ((S)-4-methyl-1-oxo-1-(((S)-1-oxo-3-((R)-2-oxopyrrolidin-3-yl)propan-2-yl)amino)pentan-2-yl)carbamate], above 100 µM. The same measure, in the same setting: under `CC(C)C[C@H](NC(=O)OCC1CN(C(=O)Cc2ccccc2)C1)C(=O)N[C@H](C=O)C[C@H]1CCNC1=O` [Compound 15b, (1-(2-Phenylacetyl)azetidin-3-yl)methyl ((S)-4-methyl-1-oxo-1-(((S)-1-oxo-3-((R)-2-oxopyrrolidin-3-yl)propan-2-yl)amino)pentan-2-yl)carbamate] stands above 100 µM. Regarding `CC(C)C[C@H](NC(=O)OC1CC2(CCN(C(=O)OC(C)(C)C)C2)C1)C(=O)N[C@H](C=O)C[C@H]1CCNC1=O` (stereo partly drawn) [Compound 5b, tert-Butyl 2-((((S)-4-methyl-1-oxo-1-(((S)-1-oxo-3-((R)-2-oxopyrrolidin-3-yl)propan-2-yl)amino)pentan-2-yl)carbamoyl)oxy)-6-azaspiro[3.4]octane-6-carboxylate], the IC50 against MERS-CoV 3CL^pro amounted to 0.7 ± 0.14 µM. In the data set “in vitro”, this molecule had a CC50 above 100 µM.

Take `CC(C)C[C@H](NC(=O)OC1CN(C(=O)OC(C)(C)C)C1)C(=O)N[C@H](C=O)C[C@H]1CCNC1=O` [Compound 12b, tert-Butyl 3-((((S)-4-methyl-1-oxo-1-(((S)-1-oxo-3-((R)-2-oxopyrrolidin-3-yl)propan-2-yl)amino)pentan-2-yl)carbamoyl)oxy)azetidine-1-carboxylate]: the CC50 in the data set “in vitro” was above 100 µM. With `CC(C)C[C@H](NC(=O)OC1CC2(CCN(S(C)(=O)=O)CC2)C1)C(=O)N[C@H](C=O)C[C@H]1CCNC1=O` [Compound 10b, 7-(Methylsulfonyl)-7-azaspiro[3.5]nonan-2-yl ((S)-4-methyl-1-oxo-1-(((S)-1-oxo-3-((R)-2-oxopyrrolidin-3-yl)propan-2-yl)amino)pentan-2-yl)carbamate], the CC50 in “in vitro” was above 100 µM.

`CC(C)C[C@H](NC(=O)OC1CC2(CCN(C(=O)C(C)C)CC2)C1)C(=O)N[C@H](C=O)C[C@H]1CCNC1=O` [Compound 8b, 7-Isobutyryl-7-azaspiro[3.5]nonan-2-yl ((S)-4-methyl-1-oxo-1-(((S)-1-oxo-3-((R)-2-oxopyrrolidin-3-yl)propan-2-yl)amino)pentan-2-yl)carbamate] gave a CC50 in “in vitro” above 100 µM. In turn, `CC(C)C[C@H](NC(=O)OC1CC2(C1)CN(S(C)(=O)=O)C2)C(=O)N[C@H](C=O)C[C@H]1CCNC1=O` [Compound 4b, 2-(Methylsulfonyl)-2-azaspiro[3.3]heptan-6-yl ((S)-4-methyl-1-oxo-1-(((S)-1-oxo-3-((R)-2-oxopyrrolidin-3-yl)propan-2-yl)amino)pentan-2-yl)carbamate] had a CC50 in the data set “in vitro” above 100 µM. For the molecule `CC(C)C[C@H](NC(=O)OC1CCC2(C1)CN(C(=O)OC(C)(C)C)C2)C(=O)N[C@H](C=O)C[C@H]1CCNC1=O` (stereo partly drawn) [Compound 6b, tert-Butyl 6-((((S)-4-methyl-1-oxo-1-(((S)-1-oxo-3-((R)-2-oxopyrrolidin-3-yl)propan-2-yl)amino)pentan-2-yl)carbamoyl)oxy)-2-azaspiro[3.4]octane-2-carboxylate], the CC50 in “in vitro” is above 100 µM.

Source of the values: publication PMC9172056 (Journal of medicinal chemistry, 2022).
